Source: US9085555B2, “Complement pathway modulators and uses thereof” (priority 2011, dated 2015)
Like-named read-outs stand apart in the source and are kept apart here.

Target: Factor D (Homo sapiens (Human), UniProt P00746)
Assay: biochemical
Type: biochemical

Sequence of Factor D (P00746 26-253): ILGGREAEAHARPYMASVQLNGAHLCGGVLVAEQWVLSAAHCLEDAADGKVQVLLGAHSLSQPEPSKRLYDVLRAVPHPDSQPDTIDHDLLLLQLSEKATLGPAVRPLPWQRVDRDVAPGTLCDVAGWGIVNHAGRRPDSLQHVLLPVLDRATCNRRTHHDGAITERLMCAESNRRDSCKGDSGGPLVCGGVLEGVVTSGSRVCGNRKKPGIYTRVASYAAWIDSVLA

SMILES: NC(=O)n1cc(NC(=O)N2C[C@@](F)(CNC=O)C[C@H]2C(=O)NCc2cccc(Cl)c2F)c2ccccc21 [Example 410, 2S,4S)-4-Fluoro-4-formylaminomethyl-pyrrolidine-1,2-dicarboxylic acid 1-[(1-carbamoyl-1H-indol-3-yl)-amide]2-(3-chloro-2-fluoro-benzylamide]
- IC50 (read-out: IC50): 15 nM

SMILES: CCOC(=O)[C@H](CC1CCCCC1)NC(=O)[C@@H]1C[C@H]2C[C@H]2N1C(=O)Cn1nc(C(C)=O)c2cccnc21 [Example 765]
- IC50 (read-out: IC50): 211 nM

SMILES: Cc1cnc(CNC(=O)[C@@H]2C[C@H](N)CN2C(=O)Nc2cn(C(N)=O)c3ccccc23)s1 [Example 65, (2S,4S)-4-Amino-pyrrolidine-1,2-dicarboxylic acid 1-[(1-carbamoyl-1H-indol-3-yl)-amide] 2-[(5-methyl-thiazol-2-ylmethyl)-amide]]
- IC50 (read-out: IC50): 13100 nM

SMILES: NC(=O)n1cc(NC(=O)N2CSC[C@H]2C(=O)Nc2cccc(OC(F)(F)F)c2)c2ccccc21 [Example 161, (R)-Thiazolidine-3,4-dicarboxylic acid 3-[(1-carbamoyl-1H-indol-3-yl)-amide] 4-[(3-trifluoromethoxy-phenyl)-amide]]
- IC50 (read-out: IC50): 987 nM

SMILES: Cc1cc2c(C(N)=O)nn(CC(=O)N3[C@H](C(=O)Nc4cccc(Br)n4)C[C@@]4(C)C[C@@H]34)c2cn1 [Example 745, 1-{2-[(1R,3S,5R)-3-(6-Bromo-pyridin-2-ylcarbamoyl)-5-methyl-2-aza-bicyclo[3.1.0]hex-2-yl]-2-oxo-ethyl}-5-methyl-1H-pyrazolo[3,4-c]pyridine-3-carboxylic acid amide]
- IC50 (read-out: IC50): 5 nM

SMILES: NC(=O)n1cc(NC(=O)N2C[C@@H](N)C[C@H]2C(=O)NC2(c3ccccc3)CC2)c2ccccc21 [Example 72, (2S,4S)-4-Amino-pyrrolidine-1,2-dicarboxylic acid 1-[(1-carbamoyl-1H-indol-3-yl)-amide] 2-[(1-phenyl-cyclopropyl)-amide]]
- IC50 (read-out: IC50): 7000 nM

SMILES: CC[C@@H]1CC[C@@H](C(=O)Nc2cccc(OC(F)(F)F)c2)N1C(=O)Nc1cn(C(N)=O)c2ccccc12 [Example 338, (2S,5R)-5-Ethyl-pyrrolidine-1,2-dicarboxylic acid 1-[(1-carbamoyl-1H-indol-3-yl)-amide]2-[(3-trifluoromthoxy-phenyl)-amide]]
- IC50 (read-out: IC50): 18900 nM

SMILES: CC(=O)c1cn(CC(=O)N2[C@H](C(=O)NCc3cccc(Cl)c3F)C[C@@]3(CO)C[C@@H]23)c2ccccc12 [Example 611, (1R,3S,5S)-2-[2-(3-Acetyl-indol-1-yl)-acetyl]-5-hydroxymethyl-2-aza-bicyclo[3.1.0]hexane-3-carboxylic acid 3-chloro-2-fluoro-benzylamide]
- IC50 (read-out: IC50): 141 nM

SMILES: CCc1cccc(NC(=O)[C@@H]2C[C@@H](F)CN2C(=O)Nc2cn(C(N)=O)c3ccccc23)n1 [Example 163, (2S,4R)-4-Fluoro-pyrrolidine-1,2-dicarboxylic acid 1-[(1-carbamoyl-1H-indol-3-yl)-amide] 2-[(6-ethyl-pyridin-2-yl)-amide]]
- IC50 (read-out: IC50): 100 nM

SMILES: NC(=O)n1cc(NC(=O)N2CCS[C@H]2C(=O)Nc2cncc(Br)c2)c2ccccc21 [Example 321, (S)-Thiazolidine-2,3-dicarboxylic acid 3-[(1-carbamoyl-1H-indol-3-yl)-amide] 2-[(5-bromo-pyridin-3-yl)-amide]]
- IC50 (read-out: IC50): 85 nM

SMILES: CC(=O)c1cn(CC(=O)N2[C@@H]3C[C@@H]3C[C@H]2C(=O)Nc2cccc(Br)n2)c2nnccc12 [Example 752, (1R,3S,5R)-2-[2-(5-Acetyl-pyrrolo[2,3-c]pyridazin-7-yl)-acetyl]-2-aza-bicyclo[3.1.0] hexane-3-carboxylic acid (6-bromo-pyridin-2-yl)-amide]
- IC50 (read-out: IC50): 95 nM

SMILES: CC(=O)n1cc(CC(=O)N2CCC[C@H]2C(=O)Nc2cccc(OC(F)(F)F)c2)c2ccccc21 [Example 119, (S)-1-[2-(1-Acetyl-1H-indol-3-yl)-acetyl]-pyrrolidine-2-carboxylic acid (3-trifluoromethoxy-phenyl)-amide]
- IC50 (read-out: IC50): 4800 nM

SMILES: NC(=O)n1cc(NC(=O)N2[C@@H]3C[C@@H]3C[C@H]2C(=O)NCc2cccnc2)c2ccccc21 [Example 226, (1R,3S,5R)-2Azabicyclo[3.1.0]hexane-2,3-dicarboxylic acid 2-[(1-carbamoyl-1H-indol-3-yl)amide] 3-[(pyridin-3-ylmethyl)-amide]]
- IC50 (read-out: IC50): 417 nM

SMILES: NC(=O)n1cc(NC(=O)N2NCC[C@H]2C(=O)NCc2cccc(Cl)c2F)c2ccccc21 [Example 432]
- IC50 (read-out: IC50): 7 nM

SMILES: O=C(NCc1cccc(Cl)c1F)[C@@H]1C[C@@H](F)CN1C(=O)Cn1cc(C(=O)C(F)(F)F)c2ccccc21 [Example 561, (2S,4R)-4-Fluoro-1-{2-[3-(2,2,2-trifluoro-acetyl)-indol-1-yl]-acetyl}-pyrrolidine-2-carboxylic acid 3-chloro-2-fluoro-benzylamide]
- IC50 (read-out: IC50): 14 nM

SMILES: COC[C@@H](NC(=O)[C@@H]1C[C@H]2C[C@H]2N1C(=O)Cc1cn(C(N)=O)c2ccccc12)c1cccc(Cl)c1F [Example 464, 3-(2-{(1R,3S,5R)-3-[(S)-1-(3-Chloro-2-fluoro-phenyl)-2-methoxy-ethylcarbamoyl]-2-aza-bicyclo[3.1.0]hex-2-yl}-2-oxo-ethyl)-indole-1-carboxylic acid amide]
- IC50 (read-out: IC50): 254 nM

SMILES: O=C(CO)c1cn(CC(=O)N2C[C@H](F)C[C@H]2C(=O)NCc2cccc(Br)c2F)c2ccccc12 [Example 564, (2S,4R)-4-Fluoro-1-{2-[3-(2-hydroxy-acetyl)-indol-1-yl]-acetyl}-pyrrolidine-2-carboxylic acid 3-bromo-2-fluoro-benzylamide]
- IC50 (read-out: IC50): 13 nM

SMILES: NC(=O)n1cc(CC(=O)N2C[C@@H]3C[C@@H]3[C@H]2C(=O)NCc2cccc(Cl)c2F)c2cc(OCCO)ccc21 (relative stereo) [Example 465, 3-{2-[(1S*,2S*,5R*)-2-(3-Chloro-2-fluoro-benzylcarbamoyl)-3-aza-bicyclo[3.1.0]hex-3-yl]-2-oxo-ethyl}-5-(2-hydroxy-ethoxy)-indole-1-carboxylic acid amide]
- IC50: 1590 nM

SMILES: CN[C@H]1C[C@@H](C(=O)NCc2cccc(Cl)c2F)N(C(=O)Nc2cn(C(N)=O)c3ccccc23)C1 [Example 425, 2S,4S)-4-Methylamino-pyrrolidine-1,2-dicarboxylic acid 1-[(1-carbamoyl-1H-indol-3-yl)-amide]2-(3-chloro-2-fluoro-benzylamide]
- IC50 (read-out: IC50): 1230 nM

SMILES: CC(C)c1cccc(NC(=O)[C@@H]2C[C@H]3C[C@H]3N2C(=O)Cn2nc(C(N)=O)c3ccncc32)n1 [Example 673, 1-{2-[(1R,3S,5R)-3-(6-Isopropyl-pyridin-2-ylcarbamoyl)-2-aza-bicyclo [3.1.0]hex-2-yl]-2-oxo-ethyl}-1H-pyrazolo[3,4-c]pyridine-3-carboxylic acid amide]
- IC50 (read-out: IC50): 157 nM

SMILES: COC(=O)c1cccc(NC(=O)[C@@H]2CCCN2C(=O)Nc2cn(C(N)=O)c3ccccc23)c1 [Example 219, 3-{[(S)-1-(1-Carbamoyl-1H-indol-3-ylcarbamoyl)-pyrrolidine-2-carbonyl]-amino}-benzoic acid methyl ester]
- IC50 (read-out: IC50): 1850 nM

SMILES: NC(=O)n1cc(NC(=O)N2CC[C@@H](N)[C@H]2C(=O)NCc2cccc(Cl)c2F)c2ccccc21 [Example 417, 2S,3R)-3-Amino-pyrrolidine-1,2-dicarboxylic acid 1-[(1-carbamoyl-1H-indol-3-yl)-amide]2-(3-chloro-2-fluoro-benzylamide]
- IC50 (read-out: IC50): 40 nM

SMILES: COC(=O)c1cc(Br)cc(NC(=O)[C@@H]2C[C@@H](F)CN2C(=O)Nc2cn(C(N)=O)c3ccccc23)c1 [Example 153, 3-Bromo-5-{[(2S,4R)-1-(1-carbamoyl-1H-indol-3-ylcarbamoyl)-4-fluoro-pyrrolidine-2-carbamoyl]-amino}-benzoic acid methyl ester]
- IC50 (read-out: IC50): 55 nM

SMILES: NC(=O)n1cc(NC(=O)N2CC3O[C@@H]3[C@H]2C(=O)NCc2cccc(Cl)c2F)c2ccccc21 (stereo partly drawn) [Example 146, (1R,2S,5S)-6-Oxa-3-aza-bicyclo[3.1.0]hexane-2,3-dicarboxylic acid 3-[(1-carbamoyl-1H-indol-3-yl)-amide] 2-(3-chloro-2-fluoro-benzylamide)]
- IC50 (read-out: IC50): 9 nM

SMILES: NC(=O)n1cc(NC(=O)N2C[C@@H](N)C[C@H]2C(=O)NCCc2ccccc2Cl)c2ccccc21 [Example 87, (2S,4S)-4-Amino-pyrrolidine-1,2-dicarboxylic acid 1-[(1-carbamoyl-1Hindol-3-yl)-amide] 2-{[2-(2-chloro-phenyl)-ethyl]-amide}]
- IC50 (read-out: IC50): 4650 nM

SMILES: C[C@@]1(F)C[C@@H](C(=O)NCc2cccc(Cl)c2F)N(C(=O)Cn2cc(C(=O)CO)c3ccccc32)C1 [Example 543, (2S,4R)-4-Fluoro-1-{2-[3-(2-hydroxy-acetyl)-indol-1-yl]-acetyl}-4-methyl-pyrrolidine-2-carboxylic acid 3-chloro-2-fluoro-benzylamide]
- IC50 (read-out: IC50): 245 nM

SMILES: COC(=O)C(CCC(F)(F)F)NC(=O)[C@@H]1C[C@H]2C[C@H]2N1C(=O)Cn1nc(C(C)=O)c2cccnc21 (stereo partly drawn) [Example 767, 2-({(1R,3S,5R)-2-[2-(3-Acetyl-pyrazolo[3,4-b]pyridin-1-yl)-acetyl]-2-aza-bicyclo[3.1.0]hexane-3-carbonyl}-amino)-5,5,5-trifluoro-pentanoic acid methyl ester]
- IC50 (read-out: IC50): 346 nM

SMILES: NC(=O)n1cc(CC(=O)N2CCS[C@H]2C(=O)NCc2cccc(Cl)c2F)c2cc(OCCO)ccc21 [Example 462, 3-{2-[(S)-2-(3-Chloro-2-fluoro-benzylcarbamoyl)-thiazolidin-3-yl]-2-oxo-ethyl}-5-(2-hydroxy-ethoxy)-indole-1-carboxylic acid amide]
- IC50 (read-out: IC50): 75 nM

SMILES: C[C@@]1(C(=O)Nc2cccc(OC(F)(F)F)c2)CCCN1C(=O)Nc1cn(C(N)=O)c2ccccc12 [Example 192, (S)-2-Methyl-pyrrolidine-1,2-dicarboxylic acid 1-[(1-carbamoyl-1H-indol-3-yl)-amide] 2-[(3-trifluoromethoxy-phenyl)-amide]]
- IC50 (read-out: IC50): 17800 nM

SMILES: CCc1cc2c(C(N)=O)nn(CC(=O)N3[C@@H]4C[C@@H]4C[C@H]3C(=O)Nc3cccc(OC(F)(F)F)c3F)c2cn1 [Example 712, 5-Ethyl-1-{2-[(1R,3S,5R)-3-(2-fluoro-3-trifluoromethoxy-phenylcarbamoyl)-2-aza-bicyclo[3.1.0]hex-2-yl]-2-oxo-ethyl}-1H-pyrazolo[3,4-c]pyridine-3-carboxylic acid amide]
- IC50 (read-out: IC50): 38 nM
